Experimental data taken from US8288375B2, “Fungicidal bicyclic pyrazoles” (E.I. du Pont de Nemours and Company, priority 2007, dated 2012).
Marks after values point to notes of the source that are not given here.

Legend:
Format in all cases: in vivo
[1] = system: Erysiphe graminis f. sp. tritici; assay: Test A: wheat powdery mildew, test suspension sprayed on wheat seedlings, disease rating; settings: for pest or weed control at 200 ppm: Blumeria graminis, 192 h
[2] = system: Puccinia recondite f sp. tritici; assay: Test B: wheat leaf rust, test suspension sprayed on wheat seedlings, disease rating;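 further: 200 ppm unless marked * meaning 40 ppm or ** meaning 10 ppm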
Fusarium graminearum = assay: whole plant or invertebrate
Septoria nodorum = assay: Test D: wheat glume blotch, test suspension sprayed on wheat seedlings, disease rating; settings: for pest or weed control at 200 ppm: Parastagonospora nodorum, 216 h
Septoria tritici = assay: Test E: wheat leaf blotch, test suspension sprayed on wheat seedlings, disease rating; settings: 200 ppm test suspension; for pest or weed control at 200 ppm: Zymoseptoria tritici, 504 h;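 on all read-outs here: 200 ppm unless marked * meaning 40 ppm or ** meaning 10 ppm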
Phytophthora infestans = assay: whole plant or invertebrate; settings: for pest or weed control at 200 ppm: Phytophthora infestans, in Solanum lycopersicum, 120 h, read-out: Test J disease control rating
Pythium aphanidermatum = assay: Test L: bluegrass pythium blight, test suspension sprayed on bluegrass seedlings, disease rating; settings: for pest or weed control at 200 ppm: Pythium aphanidermatum, 120 h;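 on all read-outs here: 200 ppm unless marked * meaning 40 ppm or ** meaning 10 ppm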
[3] = 200 ppm test suspension, 100 = 100% disease control, 0 = no control

Structure (SMILES)	Test A disease control rating [1, 3] [%]	Test D disease control rating (Septoria nodorum; 200 ppm test suspension) [%]	Test E disease control rating (Septoria tritici) [%]	Test J disease control rating (Phytophthora infestans; 200 ppm test suspension) [%]	Test L disease control rating (Pythium aphanidermatum; 200 ppm test suspension) [%]	Test A disease control rating ([1]; 40 ppm test suspension (*))	Test B disease control rating ([2]; 40 ppm test suspension (*))	Test C disease control rating (Fusarium graminearum; 40 ppm test suspension (*))	Test D disease control rating (Septoria nodorum; 40 ppm test suspension (*))	Test J disease control rating (Phytophthora infestans; 40 ppm test suspension (*))	Test L disease control rating (Pythium aphanidermatum; 40 ppm test suspension (*))	also measured
Fc1ccc(-c2nn3c(c2-c2ccnc(Nc4ccc(OC(F)(F)F)cc4)n2)CCCC3)cc1 [compound 60]	0	64	71	9	0	–	–	–	–	–	–	Test B disease control rating ([2]; 200 ppm test suspension): 74%; Test C disease control rating (Fusarium graminearum; 200 ppm test suspension): 91%
CC(=O)OCC(C)Nc1nccc(-c2c(-c3ccc(F)cc3)nn3c2CCCC3)n1 (stereo not shown) [compound 67]	0	78	93	99	100	–	–	–	–	–	–	Test B disease control rating ([2]; 200 ppm test suspension): 100%; Test C disease control rating (Fusarium graminearum; 200 ppm test suspension): 100%
Fc1ccc(-c2nn3c(c2-c2ccnc(NCc4cccs4)n2)CCCC3)cc1 [compound 39]	0	60	88	0	0	–	–	–	–	–	–	Test B disease control rating ([2]; 200 ppm test suspension): 67%; Test C disease control rating (Fusarium graminearum; 200 ppm test suspension): 60%
CC(C)Nc1nccc(-c2c(-c3ccc(F)cc3)nn3c2CSCC3)n1 [compound 110]	0	60	17	99	100	–	–	–	–	–	–	Test B disease control rating ([2]; 200 ppm test suspension): 95%; Test C disease control rating (Fusarium graminearum; 200 ppm test suspension): 92%
CC(CO)Nc1nccc(-c2c(-c3ccsc3)nn3c2COCC3)n1 (stereo not shown) [compound 124]	0	60	54	66	99	–	–	–	–	–	–	Test B disease control rating ([2]; 200 ppm test suspension): 86%; Test C disease control rating (Fusarium graminearum; 200 ppm test suspension): 98%
CC(C)Nc1nccc(-c2c(-c3ccccc3F)nn3c2CCC3)n1 [compound 97]	0	82	61	96	100	–	–	–	–	–	–	Test B disease control rating ([2]; 200 ppm test suspension): 55%; Test C disease control rating (Fusarium graminearum; 200 ppm test suspension): 100%
COc1nccc(-c2c(-c3ccc(F)cc3)nn3c2CCCC3)n1 [Compound 105]	0	78	100	73	0	–	–	–	–	–	–	Test B disease control rating ([2]; 200 ppm test suspension): 94%; Test C disease control rating (Fusarium graminearum; 200 ppm test suspension): 94%
CC(CO)Nc1nccc(-c2c(-c3ccc(F)cc3)nn3c2Cc2ccccc2C3)n1 (stereo not shown) [compound 140]	0	0	49	26	99	–	–	–	–	–	–	Test B disease control rating ([2]; 200 ppm test suspension): 90%; Test C disease control rating (Fusarium graminearum; 200 ppm test suspension): 98%
OCCNc1nccc(-c2c(-c3ccc(F)cc3)nn3c2CCCC3)n1 [compound 25]	96	87	97	83	100	–	–	–	–	–	–	–
C[C@H](CO)Nc1nccc(-c2c(-c3ccc(F)cc3)nn3c2CCCC3)n1 [compound 57]	–	–	–	–	–	0* %	86* %	0* %	0* %	99* %	100* %	–
CC(C)N(O)c1nccc(-c2c(-c3ccc(F)cc3)nn3c2CS(=O)(=O)CC3)n1 [compound 115]	–	–	–	–	–	0* %	63* %	0* %	69* %	73* %	–	–
Cc1cc(-c2nn3c(c2-c2ccnc(NC4CC4)n2)CCCC3)ccc1F [compound 56]	–	–	–	–	–	86* %	0* %	100* %	99* %	93* %	100* %	–
C#CCNc1nccc(-c2c(-c3ccc(F)cc3)nn3c2CCCC3)n1 [compound 58]	–	–	–	–	–	0* %	0* %	100* %	82* %	26* %	62* %	–
CC(C)Nc1nccc(-c2c(-c3ccccc3)nn3c2CCCC3)n1 [Compound 26, N-(1-methylethyl)-4-(4,5,6,7-tetrahydro-2-phenylpyrazolo[1,5-a]pyridin-3-yl)-2-pyrimidinamine]	–	–	–	–	–	–	–	–	–	–	–	pest or weed control at 200 ppm [1, 3]: 91%; pest or weed control at 200 ppm (Septoria nodorum; 200 ppm test suspension): 99%; pest or weed control at 200 ppm (Septoria tritici): 96%; pest or weed control at 200 ppm (Phytophthora infestans): 91%; pest or weed control at 200 ppm (Pythium aphanidermatum; 200 ppm test suspension): 100%
C[Si](C)(C)CNc1nccc(-c2c(-c3ccccc3)nn3c2CCCC3)n1 [compound 55]	–	–	–	–	–	0* %	91* %	99* %	44* %	17* %	0* %	–
Cc1cc(-c2nn3c(c2-c2ccnc(NC[Si](C)(C)C)n2)CCCC3)ccc1F [compound 50]	–	–	–	–	–	0* %	0* %	92* %	0* %	31* %	68* %	–
C[C@@H](CO)Nc1nccc(-c2c(-c3ccccc3)nn3c2CCCC3)n1 [Compound 54, (2S)-2-[[4-(4,5,6,7-tetrahydro-2-phenylpyrazolo[1,5-c]pyridine-3-yl)-2-pyrimidinyl]amino]-1-propanol]	–	–	–	–	–	0* %	98* %	95* %	60* %	99* %	100* %	–
CN(C)Nc1nccc(-c2c(-c3ccc(F)cc3)nn3c2CCCC3)n1 [compound 23]	99	94	98	71	0	–	–	–	–	–	–	–
COCC(C)Nc1nccc(-c2c(-c3ccccc3)nn3c2CCCC3)n1 (stereo not shown) [compound 53]	–	–	–	–	–	0* %	98* %	99* %	84* %	99* %	100* %	–
Clc1ccc(-c2nn3c(c2-c2ccnc(NC4CC4)n2)CCCC3)cc1 [compound 22]	50	87	94	83	77	–	–	–	–	–	–	–
COCC(C)Nc1nccc(-c2c(-c3ccc(F)c(C)c3)nn3c2CCCC3)n1 (stereo not shown) [compound 62]	–	–	–	–	–	78* %	80* %	98* %	60* %	96* %	99* %	–
Fc1ccc(-c2nn3c(c2-c2ccnc(NC4CC4)n2)CCCC3)c(F)c1 [compound 28]	94	92	96	95	98	–	–	–	–	–	–	–
C#CCNc1nccc(-c2c(-c3ccccc3)nn3c2CCCC3)n1 [compound 59]	–	–	–	–	–	0* %	92* %	99* %	94* %	71* %	–	Test L disease control rating (Pythium aphanidermatum; 10 ppm test suspension (**)): 67** %
CC(C)Nc1nccc(-c2c(-c3ccc(Cl)cc3)nn3c2CCCC3)n1 [compound 21]	96	82	100	52	76	–	–	–	–	–	–	–
Cc1cc(-c2nn3c(c2-c2ccnc(NC(C)CO)n2)CCCC3)ccc1F (stereo not shown) [compound 32]	–	–	–	–	–	0* %	74* %	0* %	0* %	98* %	99* %	–
Cc1cc(-c2nn3c(c2-c2ccnc(NC(C)C)n2)CCCC3)ccc1F [compound 33]	–	–	–	–	–	0* %	77* %	98* %	94* %	95* %	97* %	–
Fc1ccc(-c2nn3c(c2-c2ccnc(NC4CC4)n2)COCC3)cc1 [Compound 109, N-cyclopropyl-4-[2-(4-fluorophenyl)-6,7-dihydro-4H-pyrazolo[5,1-c][1,4]oxazin-3-yl]-2-pyrimidinamine]	–	–	–	–	–	–	–	–	–	–	–	pest or weed control at 200 ppm [1, 3]: 92%; pest or weed control at 200 ppm (Fusarium graminearum; Fusarium graminearum, in Triticum aestivum, 192 h, read-out: Test C disease control rating): 100%; pest or weed control at 200 ppm (Septoria nodorum; 200 ppm test suspension): 0%; pest or weed control at 200 ppm (Septoria tritici): 100%; pest or weed control at 200 ppm (Phytophthora infestans): 99%; pest or weed control at 200 ppm (Pythium aphanidermatum; 200 ppm test suspension): 100%
